Reference: patent US20220280594A1, “APPLICATION OF POLYPEPTIDE OR DERIVATIVE THEREOF” (CHENGDU HUITAI BIOMEDICINE CO., LTD., priority 2019, published 2022)
Ends that are not written are not given here. PEG = not defined here

Legend:
[1] = system: human lung cancer cells (A549) subcutaneous xenograft; experiment: lung cancer subcutaneous xenograft animal model, intratumoral injection; assay type: in vivo, mice (BALB/c-nu/nu); conditions: intratumoral 5 mg/kg once every other day, 10 days; for Weight of tumor (g) (mean ± SD): control 1.45 ± 0.15; for Volume of tumor (mm^3) (mean ± SD): control 1269.32 ± 115.39
Procedure: (§1) Experimental animals: 4-6 weeks old female immunodeficiency mice (BALB/c-nu/nu, Beijing Vital River Laboratory Animal Technology Co., Ltd.).
(§2) Subcutaneous xenograft animal model. The number of cells inoculated subcutaneously vin mice was about 2×10^6/200 μL. When the volume of the subcutaneous tumor was greater than 100 mm^3, the mice were randomly divided into groups and subjected to treatment. When the mass volume of the tumors in model control group reached 2000 mm^3 or the animal dies, the treatment ended. The animals were dissected, the tumors were taken out, and the weight and volume of the tumors were measured. During the period of the entire experiment, the mice were observed and the body weight was measured every other day.
The method used for the drug efficacy test in the animal model of the subcutaneous xenograft derived from lung cancer cells was as described in Example 5. The tumor cells were human lung cancer cells (A549), and the route of administration was intratumoral injection. There were two groups: the model control group and the polypeptide or its derivative treatment group (N1-N12). The drug dosage of the treatment group was 5 mg/kg, once every other day and the treatment time was 10 days.
The procedure of the efficacy test in this example, route and dosage of administration were the same as in Example 9. The peptides used in the experiment were N13-N32. The treatment time was 20 days.

[2] = system: human pancreatic cancer cells (PANC-1) subcutaneous xenograft; experiment: pancreatic cancer subcutaneous xenograft animal model, intratumoral injection; assay type: in vivo, mice (BALB/c-nu/nu); conditions: PANC-1 xenograft, intratumoral 5 mg/kg once every other day, 25 days; for Weight of tumor (g) (mean ± SD): control 1.2 ± 0.11; for Volume of tumor (mm^3) (mean ± SD): control 1431.72 ± 174.33
Procedure: as §1, §2
The method used in the efficacy test on the pancreatic cancer subcutaneous xenograft animal model was as described in Example 5. The pancreatic cancer cells were human pancreatic cancer cells (PANC-1), and the route of administration was intratumoral injection. The experimental groups were model control group and polypeptide or derivative thereof treatment groups (N1-N12). The drug dosage of the N1-N12 treatment group was 5mg/kg, once every other day, and the treatment time was 25 days.

fibronectin = fibronectin expression in SK-HEP-1 cells (ELISA); assay type: cell-based, human; conditions: SK-HEP-1, 10 μM, 24 hours, control group 1.62 ± 0.09
Procedure: (§3) SK-HEP-1 cells were cultured in vitro, cells in the logarithmic growth phase were collected, and the cells were seeded evenly in a 24-well plate at a density of 1-3×10^5 cells/well. The cells were cultured in a cell incubator for 4-5 h. PBS was added to the control group. PBS containing polypeptide or derivative thereof (N1-N12) was added to the treatment group. The final concentration of the polypeptide or derivative thereof in the well was 10 μM. After incubating for 24 hours, the cells were collected and the total protein was extracted. ELISA was used to detect the content of fibronectin in total protein.

N-cadherin = N-cadherin expression in SK-HEP-1 cells (ELISA); assay type: cell-based, human; conditions: SK-HEP-1, 10 μM, 24 hours, control group 1.12 ± 0.03
Procedure: as §3
The experimental method for testing the inhibition on the expression of N-cadherin in human liver adenocarcinoma cells (SK-HEP-1) by the polypeptide or derivative thereof (N1-N12) was as described in Example 19.

vimentin = vimentin expression in SK-HEP-1 cells (ELISA); assay type: cell-based, human; conditions: SK-HEP-1, 10 μM, 24 hours, control group 1.2 ± 0.01
Procedure: as §3
The experimental method for testing the inhibition on the expression of vimentin in human liver adenocarcinoma cells (SK-HEP-1) by the polypeptide or derivative thereof (N1-N12) was as described in Example 19.

[3] = effect on coagulation function in mice (ACT); assay type: in vivo, C57BL/6J mice; conditions: 200 mg/kg tail vein once a day until Day 24, blood on Day 25; control group 73.50 ± 7.15
Procedure: C57BL/6J mice were used as experimental subjects (purchased from Chengdu Dashuo Experimental Animal Co., Ltd., male, weighing 16-17 g). Sterile saline or peptide drugs were injected via the tail vein once a day until Day 24. The mice in the control group were injected with sterile saline, and the mice in the administration groups (N1-N12) were injected with polypeptide drugs (200 mg/kg). There were three experimental animals in each group. On Day 25, the eyeballs were removed and blood ([…]) was taken. The coagulation function of the mice was detected by the Abbott i-STAT blood gas analyzer with the ACT test card.

Substance | Weight of tumor (g) (mean ± SD) [1] | Volume of tumor (mm^3) (mean ± SD) [1] | Weight of tumor (g) (mean ± SD) [2] | Volume of tumor (mm^3) (mean ± SD) [2] | Relative protein level (mean ± SD, P), fibronectin (fibronectin) | Relative protein level (mean ± SD, P), N-cadherin (N-cadherin) | Relative protein level (mean ± SD, P), vimentin (vimentin) | Activated clotting time (s) (mean ± SD) [3]
N2: SEQ ID NO: 1 with deletion of one amino acid (position 18) at the carboxyl terminal (YRVRFLAKENVTQDAED) | 0.86 ± 0.13 | 809.89 ± 129.93 | 0.72 ± 0.12 | 761.37 ± 150.52 | 1.23 ± 0.08,** | 0.93 ± 0.04,** | 0.91 ± 0.03, **** | 74.82 ± 9.62
N9: SEQ ID NO: 1 with deletion of positions 15-18 and PEG modification at the amino terminal ({PEG}-YRVRFLAKENVTQD; reading uncertain) | 0.72 ± 0.09 | 781.14 ± 123.66 | 0.5 ± 0.09 | 765.6 ± 105.04 | 1.33 ± 0.09,* | 0.73 ± 0.04,*** | 1.03 ± 0.05, ** | 72.09 ± 8.07
N12: SEQ ID NO: 1 with deletion of position 18 and positions 1-2 (VRFLAKENVTQDAED) | 0.73 ± 0.09 | 726.15 ± 144.96 | 0.71 ± 0.09 | 863.2 ± 129.61 | 1.23 ± 0.07,** | 0.58 ± 0.03,*** | 0.71 ± 0.03, **** | 75.55 ± 7.61
N8: SEQ ID NO: 1 with deletion of positions 15-18 and positions 3, 4 and 11 (YRFLAKENTQD) | 0.68 ± 0.11 | 783.99 ± 69.19 | 0.59 ± 0.11 | 769.54 ± 160.54 | 1.33 ± 0.11,* | 0.7 ± 0.06,*** | 0.81 ± 0.03, **** | 74 ± 8.92
N6: SEQ ID NO: 1 with deletion of four amino acids at the carboxyl terminal (positions 15-18) (YRVRFLAKENVTQD) | 0.79 ± 0.18 | 769.35 ± 155.34 | 0.61 ± 0.07 | 538.26 ± 121.04 | 1.33 ± 0.04,** | 0.83 ± 0.04,*** | 0.81 ± 0.03, **** | 74.09 ± 8.51
N11: SEQ ID NO: 1 with deletion of positions 15-18 and 1-3 and PEG modification at the amino terminal ({PEG}-RFLAKENVTQD; reading uncertain) | 0.73 ± 0.08 | 756.57 ± 204.03 | 0.62 ± 0.12 | 785.02 ± 147.38 | 1.39 ± 0.01,* | 0.73 ± 0.04,*** | 0.94 ± 0.05, *** | 75.18 ± 7.99
N1: polypeptide with the amino acid sequence set forth in SEQ ID NO: 1 (YRVRFLAKENVTQDAEDN) | 0.87 ± 0.08 | 851.64 ± 67.38 | 0.52 ± 0.13 | 704.1 ± 152.43 | 1.3 ± 0.02,** | 0.83 ± 0.04,*** | 0.97 ± 0.03, *** | 73.64 ± 9.31
N4: SEQ ID NO: 1 with deletion of positions 15-18 and positions 1-3 (RFLAKENVTQD) | 0.63 ± 0.12 | 740.79 ± 140.87 | 0.62 ± 0.07 | 673.03 ± 157.33 | 1.23 ± 0.11,** | 0.93 ± 0.04,** | 0.95 ± 0.03, *** | 73.64 ± 8.12
N5: SEQ ID NO: 1 with addition of one amino acid at the carboxyl terminal and deletion of positions 1-3 (RFLAKENVTQDAEDNC) | 0.69 ± 0.14 | 738.11 ± 167.03 | 0.54 ± 0.1 | 696.52 ± 127.05 | 1.3 ± 0.11,* | 0.83 ± 0.04,*** | 0.87 ± 0.03, **** | 72.91 ± 8.04
N7: SEQ ID NO: 1 with addition of one amino acid at the carboxyl terminal and substitution A15R (YRVRFLAKENVTQDREDNC) | 0.81 ± 0.16 | 741.86 ± 147.66 | 0.74 ± 0.09 | 671.47 ± 150.71 | 1.36 ± 0.04,* | 0.73 ± 0.06,*** | 1 ± 0.03, *** | 73.27 ± 8.43
N3: SEQ ID NO: 1 with deletion of position 18 and PEG modification at the amino terminal ({PEG}-YRVRFLAKENVTQDAED; reading uncertain) | 0.79 ± 0.18 | 712.59 ± 200.32 | 0.6 ± 0.1 | 695.11 ± 111.9 | 1.26 ± 0.09,** | 0.87 ± 0.09,* | 0.96 ± 0.05, ** | 72.55 ± 8.27
N10: SEQ ID NO: 1 with deletion of positions 15-18 and 1-3 and PEG modification at the carboxyl terminal (RFLAKENVTQD-{PEG}; reading uncertain) | 0.75 ± 0.07 | 705.83 ± 182.18 | 0.57 ± 0.11 | 667.99 ± 188.73 | 1.3 ± 0.05,** | 0.69 ± 0.03,**** | 0.88 ± 0.06, *** | 73.27 ± 7.36
